Drawing on ChEMBL document CHEMBL3124920, “Substituted Benzofurans as Inhibitors of HCV NS5B Protein” (ACS Med Chem Lett, 2014), this text covers EC50 and IC50 for three compounds.

SMILES strings stand for the structures.

The test system of one assay is Hepatitis C virus. Put plainly: Antiviral activity against Hepatitis C virus genotype 1b infected in human HuH7 cells after 3 days by luciferase reporter gene assay. Format: functional, organism-based, Hepacivirus hominis. The settings on record: Huh-7, 72 h.
A short description of assay [1]: Inhibition of HCV NS5B polymerase after 4 hrs by on-bead solid phase homogeneous assay. Further details: species or system Hepacivirus hominis.

As to `CCNc1cc2oc(-c3ccc(F)cc3)c(-c3ncc[nH]3)c2c(F)c1-c1cc(C(=O)NC2(c3ncccn3)CC2)c(OC)cc1C`, the EC50 in the assay on Hepatitis C virus stood at 7.2 nM.

Consider `CCN(c1cc2oc(-c3ccc(F)cc3)c(-c3ncc[nH]3)c2c(F)c1-c1cc(C(=O)NC2(c3ncccn3)CC2)c(OC)cc1C)S(C)(=O)=O`, for which, in the assay with Hepatitis C virus, the EC50 is 9 nM.

On to `COc1cc(C)c(-c2ccc3oc(-c4ccc(F)cc4)c(-c4ncc[nH]4)c3c2F)cc1C(=O)NC1(c2ncccn2)CC1`, for which, in assay [1], half-maximal inhibition (IC50) required 30 nM. This compound registered an EC50 in the assay on Hepatitis C virus of 30 nM.
